The values that follow are results of earlier work, collected in patent publication US20070028401A1, “Powdered preparations containing a mixture of 2,4,6-trianilino-p-(carbo-2'-ethylhexyl-1'-oxi)-1,3,5-triazine and diethylamino-hydroxybenzoyl-hexyl-benzoate” (BASF Aktiengesellschaft, priority 2003, published 2007).

Each structure is given as a SMILES string. Read-outs that look alike come from different tables or passages of the source. Bounds are passed on as bounds.

For `CCCCC(CC)COC(=O)c1ccc(Nc2nc(Nc3ccc(C(=O)OCC(CC)CCCC)cc3)nc(Nc3ccc(C(=O)OCC(CC)CCCC)cc3)n2)cc1` (centres unmarked) [Uvinul T150, 2,4,6-Trianilino-p-(carbo-2′-ethylhexyl-1′-oxy)-1,3,5-triazine], the absorbance coefficient (at 314 nm) is over 1500.

`CCCCCCOC(=O)c1ccccc1C(=O)c1ccc(N(CC)CC)cc1O` [Uvinul® A Plus, Diethylamino hydroxybenzoyl hexyl benzoate]: for the setting “at 354 nm”, the absorbance coefficient is on record as 940.
